Experimental data reported in ChEMBL document CHEMBL4251628, “Novel click modifiable thioquinazolinones as anti-inflammatory agents: Design, synthesis, biological evaluation and docking study” (Eur J Med Chem, 2018).
pIC50: −log10 of the molar value. Each block holds one compound with its values, some of them ahead of it.

Key:
[1] = biological target: T1, Prostaglandin G/H synthase 1 (Ovis aries, UniProt P05979); assay: Inhibition of ovine COX1 assessed as reduction in PGF2alpha production using arachidonic acid as substrate by colorimetric method
T1 sequence (P05979 whole entry): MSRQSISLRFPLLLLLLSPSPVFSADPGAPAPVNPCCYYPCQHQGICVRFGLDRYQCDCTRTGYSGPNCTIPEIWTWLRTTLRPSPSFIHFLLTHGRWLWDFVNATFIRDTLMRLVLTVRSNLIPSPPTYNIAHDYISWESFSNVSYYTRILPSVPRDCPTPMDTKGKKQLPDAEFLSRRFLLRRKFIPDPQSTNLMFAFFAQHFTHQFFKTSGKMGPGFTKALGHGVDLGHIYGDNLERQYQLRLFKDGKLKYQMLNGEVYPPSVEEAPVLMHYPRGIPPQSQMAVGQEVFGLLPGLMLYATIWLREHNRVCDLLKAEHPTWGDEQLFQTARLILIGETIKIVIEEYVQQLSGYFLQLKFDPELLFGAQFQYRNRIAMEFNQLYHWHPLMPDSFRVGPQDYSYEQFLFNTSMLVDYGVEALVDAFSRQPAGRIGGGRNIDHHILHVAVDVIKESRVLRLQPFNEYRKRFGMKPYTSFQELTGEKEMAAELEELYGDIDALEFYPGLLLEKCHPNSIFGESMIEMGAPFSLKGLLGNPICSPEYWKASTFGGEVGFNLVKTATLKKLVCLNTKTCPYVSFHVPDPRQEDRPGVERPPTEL

THP-1 [2] = assay: Inhibition of PMA-induced human THP1 monocytes differentiation in to macrophages preincubated for 6 hrs followed by PMA stimulation by phase contrast microscopic method; assay type: functional, cell-based
Rattus norvegicus [3] = assay: Anti-inflammatory activity in rat acute inflammation model assessed as inhibition of formalin-induced paw edema at 5 mg/kg, po measured after 4 hrs relative to control; assay type: functional
Rattus norvegicus [4] = assay: Anti-inflammatory activity in rat acute inflammation model assessed as inhibition of formalin-induced paw edema at 5 mg/kg, po measured after 4 hrs relative to celecoxib; assay type: functional
THP-1 [5] = assay: Cytotoxicity against human THP1 cells assessed as reduction in cell viability after 30 hrs by MTS assay; assay type: cell-based; details: thp-1, 30 h
[6] = Inhibition of soybean 15-LOX using linoleic acid as substrate by colorimetric method; parameters: species or system Glycine max
Rattus norvegicus [7] = assay: Ulcerogenicity in Wistar rat assessed as hyperemia in gastric mucosa at 60 mg/kg, po after 6 hrs; assay type: toxicity, organism-based; details: in vivo
Rattus norvegicus [8] = assay: Ulcerogenicity in Wistar rat assessed as lymphocytic infilteration in gastric mucosa po after 6 hrs by H and E staining based light microscopic method; details: in vivo
Rattus norvegicus [9] = assay: Anti-inflammatory activity in rat acute inflammation model assessed as inhibition of formalin-induced paw edema at 5 mg/kg, po measured after 4 hrs relative to negative control
Rattus norvegicus [10] = assay: Ulcerogenicity in Wistar rat assessed as congested blood vessels in gastric mucosa esophagus at 60 mg/kg, po after 6 hrs by H and E staining based light microscopic method; assay type: toxicity, organism-based; details: in vivo
Rattus norvegicus [11] = assay: Ulcerogenicity in Wistar rat assessed as maceration of gastric mucosa at 60 mg/kg, po after 6 hrs by H and E staining based light microscopic method; assay type: toxicity, organism-based; details: in vivo
Rattus norvegicus [12] = assay: Ulcerogenicity in Wistar rat assessed as necrosis of gastric mucosa at 60 mg/kg, po after 6 hrs by H and E staining based light microscopic method; assay type: toxicity, organism-based; details: in vivo
Rattus norvegicus [13] = assay: Ulcerogenicity in Wistar rat assessed as effect on gastro-esophageal junction at 60 mg/kg, po after 6 hrs by H and E staining based light microscopic method; assay type: toxicity, organism-based; details: in vivo
[14] = biological target: T2, Serine/threonine-protein kinase Chk1 (Homo sapiens, UniProt O14757); assay: Inhibition of CHK1 (unknown origin)
T2 sequence (O14757 whole entry): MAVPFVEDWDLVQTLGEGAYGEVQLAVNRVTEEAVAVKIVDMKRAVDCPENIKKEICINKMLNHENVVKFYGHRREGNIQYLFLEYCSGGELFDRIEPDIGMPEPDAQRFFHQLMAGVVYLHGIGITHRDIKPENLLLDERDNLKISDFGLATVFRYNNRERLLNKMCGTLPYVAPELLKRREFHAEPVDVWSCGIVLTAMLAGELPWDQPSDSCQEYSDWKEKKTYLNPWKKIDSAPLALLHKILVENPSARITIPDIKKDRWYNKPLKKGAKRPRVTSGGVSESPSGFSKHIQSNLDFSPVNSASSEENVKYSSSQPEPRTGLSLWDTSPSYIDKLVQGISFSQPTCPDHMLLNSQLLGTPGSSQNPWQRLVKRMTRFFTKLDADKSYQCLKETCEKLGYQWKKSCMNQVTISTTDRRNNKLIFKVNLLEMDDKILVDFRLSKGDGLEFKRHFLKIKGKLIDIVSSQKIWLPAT

SMILES: COc1ccc(-c2cc(CSc3nc4ccccc4c(=O)n3-c3ccc(Cl)cc3)on2)cc1OC
pIC50 [1]: 4.99

SMILES: O=C(O)Cc1ccccc1Nc1c(Cl)cccc1Cl [DICLOFENAC]
pIC50 (THP-1 [2]): 5.31 | inhibition in vivo at 5 mg/kg (Rattus norvegicus [3]): 66.7% | inhibition in vivo at 5 mg/kg (Rattus norvegicus [4]): 208% | Activity (THP-1 [5]): Non-Toxic

SMILES: O=c1c2ccccc2nc(SCc2cn(-c3ccc(Br)cc3)nn2)n1-c1ccccc1
pIC50 [1]: 5.23

SMILES: O=c1c2ccccc2nc(SCc2cn(-c3ccc(Cl)cc3)nn2)n1-c1ccc(Cl)cc1
pIC50 [1]: 5.20

SMILES: O=c1c2ccccc2nc(SCc2cc(-c3ccc(Cl)cc3)no2)n1-c1ccccc1
pIC50 [1]: 5.06

SMILES: O=c1c2ccccc2nc(SCc2cn(-c3ccccc3)nn2)n1-c1ccccc1
pIC50 [1]: 5.13

SMILES: C#CCSc1nc2ccccc2c(=O)n1-c1ccc(Cl)cc1
pIC50 [1]: 5.37

SMILES: COc1ccc(-n2c(SCc3cc(-c4ccc(Cl)cc4)no3)nc3ccccc3c2=O)cc1
pIC50 [1]: 5.11

SMILES: COc1ccc(-n2c(SCc3cn(-c4ccc(Br)cc4)nn3)nc3ccccc3c2=O)cc1
pIC50 [1]: 5.12

SMILES: Cc1ccc(Cl)c(Nc2ccccc2C(=O)O)c1Cl [MECLOFENAMATE SODIUM]
pIC50 [6]: 5.25

SMILES: C#CCSc1nc2ccccc2c(=O)n1-c1ccc(Br)cc1
pIC50 [1]: 5.41 | pIC50 [6]: 5.21 | pIC50 (THP-1 [2]): 5.32 | inhibition in vivo at 5 mg/kg (Rattus norvegicus [3]): 70.8% | inhibition in vivo at 5 mg/kg (Rattus norvegicus [4]): 225% | Activity (Rattus norvegicus [7]): Non-Toxic | Activity (Rattus norvegicus [13]): Non-Toxic | Activity (THP-1 [5]): Non-Toxic | inhibition in vivo at 5 mg/kg (Rattus norvegicus [9]): 50%

SMILES: COc1ccc(-n2c(SCc3cc(-c4ccc(OC)c(OC)c4)no3)nc3ccccc3c2=O)cc1
pIC50 [1]: 5.19

SMILES: C#CCSc1nc2ccccc2c(=O)n1-c1ccc(OC)cc1
pIC50 [1]: 5.18

SMILES: O=c1c2ccccc2nc(SCc2cc(-c3ccc(Cl)cc3)no2)n1-c1ccc(Br)cc1
pIC50 [1]: 5.04

SMILES: COc1ccc(-c2cc(CSc3nc4ccccc4c(=O)n3-c3ccccc3)on2)cc1OC
pIC50 [1]: 5.03

SMILES: COc1ccc(-n2c(SCc3cn(-c4ccc(C(=O)O)cc4)nn3)nc3ccccc3c2=O)cc1
pIC50 [1]: 4.93

SMILES: COc1ccc(-n2c(SCc3cn(-c4ccccc4)nn3)nc3ccccc3c2=O)cc1
pIC50 [1]: 4.98

SMILES: COc1ccc(-c2cc(CSc3nc4ccccc4c(=O)n3-c3ccc(Cl)cc3)on2)cc1
pIC50 [1]: 4.95

SMILES: C#CCSc1nc2ccccc2c(=O)n1-c1ccccc1
pIC50 [1]: 5.42

SMILES: O=c1c2ccccc2nc(SCc2cn(-c3ccccc3)nn2)n1-c1ccc(Cl)cc1
pIC50 [1]: 5.08

SMILES: Cc1ccc(-c2cc(C(F)(F)F)nn2-c2ccc(S(N)(=O)=O)cc2)cc1 [CELECOXIB]
inhibition in vivo at 5 mg/kg (Rattus norvegicus [3]): 33.3% | Activity (Rattus norvegicus [13]): Non-Toxic

SMILES: CCCC[C@@H](Sc1nc2ccccc2c(=O)n1-c1cccc(C)c1)C(=O)N1CCC[C@]2(CCCNC2)C1
pIC50 [14]: 5.89

SMILES: CC(c1cc2ccccc2s1)N(O)C(N)=O (stereo unspecified) [ZILEUTON]
pIC50 [6]: 5.62

SMILES: COc1ccc(-c2cc(CSc3nc4ccccc4c(=O)n3-c3ccc(OC)cc3)on2)cc1
pIC50 [1]: 5.21

SMILES: O=C(O)c1ccc(-n2cc(CSc3nc4ccccc4c(=O)n3-c3ccc(Br)cc3)nn2)cc1
pIC50 [1]: 5.06

SMILES: O=C(O)c1ccc(-n2cc(CSc3nc4ccccc4c(=O)n3-c3ccccc3)nn2)cc1
pIC50 [1]: 5.23

Now from value to compound, other results behind:

pIC50 [1]: 5.25
SMILES: O=c1c2ccccc2nc(SCc2cc(-c3ccc(Cl)cc3)no2)n1-c1ccc(Cl)cc1

pIC50 [1]: 5.37
SMILES: COc1ccc(-n2c(SCc3cn(-c4ccc(Cl)cc4)nn3)nc3ccccc3c2=O)cc1

pIC50 [1]: 5.41 | pIC50 [6]: 5.40 | pIC50 (THP-1 [2]): 4.00
SMILES: O=c1c2ccccc2nc(SCc2cn(-c3ccc(Br)cc3)nn2)n1-c1ccc(Br)cc1
inhibition in vivo at 5 mg/kg (Rattus norvegicus [3]): 41.7% | inhibition in vivo at 5 mg/kg (Rattus norvegicus [4]): 133% | Activity (Rattus norvegicus [7]): Toxic | Activity (THP-1 [5]): Non-Toxic | Activity (Rattus norvegicus [8]): Toxic | inhibition in vivo at 5 mg/kg (Rattus norvegicus [9]): 50%

pIC50 [1]: 5.53 | pIC50 [6]: 5.12 | pIC50 (THP-1 [2]): 6.89
SMILES: O=C(O)c1ccc(-n2cc(CSc3nc4ccccc4c(=O)n3-c3ccc(Cl)cc3)nn2)cc1
inhibition in vivo at 5 mg/kg (Rattus norvegicus [3]): 70.8% | inhibition in vivo at 5 mg/kg (Rattus norvegicus [4]): 225% | Activity (Rattus norvegicus [7]): Toxic | Activity (Rattus norvegicus [10]): Toxic | Activity (Rattus norvegicus [11]): Non-Toxic | Activity (Rattus norvegicus [12]): Non-Toxic | Activity (THP-1 [5]): Non-Toxic | Activity (Rattus norvegicus [8]): Non-Toxic | inhibition in vivo at 5 mg/kg (Rattus norvegicus [9]): 50%

pIC50 [1]: 5.44
SMILES: O=c1c2ccccc2nc(SCc2cn(-c3ccc(Br)cc3)nn2)n1-c1ccc(Cl)cc1

pIC50 [1]: 5.27
SMILES: COc1ccc(-c2cc(CSc3nc4ccccc4c(=O)n3-c3ccc(Br)cc3)on2)cc1
inhibition in vivo at 5 mg/kg (Rattus norvegicus [3]): 61.1% | inhibition in vivo at 5 mg/kg (Rattus norvegicus [4]): 192% | inhibition in vivo at 5 mg/kg (Rattus norvegicus [9]): 50%

pIC50 [1]: 5.28 | pIC50 [6]: 5.28 | pIC50 (THP-1 [2]): 5.25
SMILES: O=c1c2ccccc2nc(SCc2cn(-c3ccc(Cl)cc3)nn2)n1-c1ccc(Br)cc1
inhibition in vivo at 5 mg/kg (Rattus norvegicus [3]): 70.8% | inhibition in vivo at 5 mg/kg (Rattus norvegicus [4]): 225% | Activity (Rattus norvegicus [7]): Toxic | Activity (Rattus norvegicus [10]): Toxic | Activity (Rattus norvegicus [11]): Non-Toxic | Activity (Rattus norvegicus [12]): Non-Toxic | Activity (THP-1 [5]): Non-Toxic | Activity (Rattus norvegicus [8]): Non-Toxic | inhibition in vivo at 5 mg/kg (Rattus norvegicus [9]): 50%

pIC50 [1]: 5.32
SMILES: O=c1c2ccccc2nc(SCc2cn(-c3ccccc3)nn2)n1-c1ccc(Br)cc1

pIC50 [1]: 5.34
SMILES: COc1ccc(-c2cc(CSc3nc4ccccc4c(=O)n3-c3ccc(Br)cc3)on2)cc1OC
inhibition in vivo at 5 mg/kg (Rattus norvegicus [3]): 51.4% | inhibition in vivo at 5 mg/kg (Rattus norvegicus [4]): 167% | inhibition in vivo at 5 mg/kg (Rattus norvegicus [9]): 50%

pIC50 [1]: 5.36 | pIC50 [6]: 5.36 | pIC50 (THP-1 [2]): 5.91
SMILES: O=c1c2ccccc2nc(SCc2cn(-c3ccc(Cl)cc3)nn2)n1-c1ccccc1
inhibition in vivo at 5 mg/kg (Rattus norvegicus [3]): 70.8% | inhibition in vivo at 5 mg/kg (Rattus norvegicus [4]): 225% | Activity (Rattus norvegicus [7]): Non-Toxic | Activity (Rattus norvegicus [13]): Non-Toxic | Activity (THP-1 [5]): Non-Toxic | inhibition in vivo at 5 mg/kg (Rattus norvegicus [9]): 50%

pIC50 [1]: 5.33
SMILES: COc1ccc(-c2cc(CSc3nc4ccccc4c(=O)n3-c3ccccc3)on2)cc1
inhibition in vivo at 5 mg/kg (Rattus norvegicus [3]): 61.1% | inhibition in vivo at 5 mg/kg (Rattus norvegicus [4]): 192% | inhibition in vivo at 5 mg/kg (Rattus norvegicus [9]): 50%
